Earlier results in patent US8404246B2, “Nutritional supplement to improve supplementary target protein fraction (TPF) delivery, intracellular absorption and utilization” (priority 2010, dated 2013).
Read-outs that look alike come from different tables or passages of the source.

Key:
[1] = exogenous form

## CC(=O)N[C@H]1C(O)O[C@H](CO)[C@@H](O)[C@@H]1O (stereo partly drawn) [N-acetyl D-glucosamine, N-Acetyl D-Glucosamine]
[1]
  solubility in water: readily soluble

## Cl.N[C@H]1C(O)O[C@H](CO)[C@@H](O)[C@@H]1O (stereo partly drawn) [glucosamine HCl]
In vivo
  ingested glycoprotein detectable in serum after dosing: 6%

## glucosamine NaCl
One recent study
  ingested glycoprotein detectable in serum after dosing: 9%
